The text below walks through data of patent US8906955B2, “Use of adrenergic beta-3-receptor agonists in anti-aging” (priority 2012, dated 2014).

The structures appear in SMILES notation.

The subject of experiment [1] is p53. Kind of experiment: Western blot of p53 in heart tissue of myocardial infarction rats. Format: in vivo. Conditions: heart failure rat, 1 mg/kg/day intraperitoneally, 4 weeks. On the procedure: (§1) In rat myocardial infarction models, activation of the β-3 receptor could increase level of SIRT1 in cardiomyocyte, inhibit expression of p53, improve the cardiac function and achieve anti-apoptosis effect. The myocardial infarction model was created by ligation of anterior descending branch of rat left coronary artery. BRL37344 was intraperitoneally injected at 1 mg/kg/day, and heart B-ultrasonography was performed after 4 weeks. Heart tissue was determined for apoptosis (tunel method) and expression levels of SIRT1 and p53 (western blot). The ratio of left ventricular weight to body weight (LVW/BW) is determined. It can be seen from the results shown in FIGS. 3 to 5, that BRL37344 decreases p53 expression, cardiac cell apoptosis, and value of LVW/BW of heart failure rat, increases SIRT1 expression, alleviate cardiac hypertrophy and improve cardiac function.

In experiment [2] the test system is SIRT1. As to the kind of experiment: Quantitative PCR of SIRT1 in organs of aging rats. Format: in vivo. As to conditions: 12-month male SD rats, 100 nmol per rat intraperitoneally, qd, 2 weeks, vs control group. The text has this: (§2) Activation of the β3 receptor could increase the expression of SIRT1, SIRT3 and SIRT4 in heart, liver, brain, kidney and aorta of aging rats. Twenty 12-month male SD rats were randomly divided into 2 groups. The rats were intraperitoneally injected with BRL37344 at 100 nmol for each rat, qd, 2 weeks. The rats in control group were administrated with solvents of same volume. The rats were sacrificed to obtain heart, liver, brain, kidney and aorta, followed by total RNA extraction. The RNA was then reversely transcribed, followed by quantitative PCR to detect gene expression of SIRT1, SIRT3 and SIRT4. Compared to the control group, BRL37344 increases the expression of SIRT1, SIRT3 and SIRT4 in heart, liver, brain, kidney and aorta.

For another experiment, the system named is SIRT3. As to the kind of experiment: Quantitative PCR of SIRT3 in organs of aging rats. Format: in vivo. As to conditions: 12-month male SD rats, 100 nmol per rat intraperitoneally, qd, 2 weeks, vs control group.
From the text: as §2

Experiment [3] relates to MCF7 cells. As to the kind of experiment: H2DCFDA flow cytometry of reactive oxygen species. Format: cell-based. As to conditions: 10^−7 M, fluorescence probe H2DCFDA. On the procedure: (§3) Activation of the β3 receptor could increase mitochondrial content of MCF7 cells. BRL37344 and SR59230A were used to treat MCF7 cells and naked tumor-bearing rats each at 10^−7 M. The amount of mitochondrion was determined by MitoTracker probes. Mitochondrial membrane potential was determinded by JC1. The ROS content of the cells was determined by fluorescence probe H2DCFDA. ATP level was determined by ATP kit. MDC staining was determined by flowcytometer. GFP-LC3 eukaryotic expression vectors were used for transfection. […] BRL37344 protected mitochondrial membrane potential (FIG. 10), reduced intracellular ROS content (FIG. 11), and increased intracellular ATP level (FIG. 12).
A general note: Flow cytometry measures light scatter and fluorescence of single cells or particles in a stream.

For a further experiment, the system named is SIRT4. Kind of experiment: Quantitative PCR of SIRT4 in organs of aging rats. Format: in vivo. Conditions: 12-month male SD rats, 100 nmol per rat intraperitoneally, qd, 2 weeks, vs control group.
From the text: as §2

For experiment [4], the system named is SIRT1. As to the kind of experiment: Western blot of SIRT1 in heart tissue of myocardial infarction rats. Format: in vivo. As to conditions: heart failure rat, 1 mg/kg/day intraperitoneally, 4 weeks. The method, then: as §1
The test system of experiment [5] is MCF7 cells. As to the kind of experiment: JC-1 flow cytometry of mitochondrial membrane potential. Format: cell-based. Conditions: 10^−7 M. On the procedure:
as §3

In experiment [6] the test system is rat myocardial infarction models. As to the kind of experiment: Rat myocardial infarction (heart failure) model: B-ultrasonography, tunel apoptosis, LVW/BW. Format: in vivo. Conditions: 1 mg/kg/day intraperitoneally, 4 weeks. On the procedure: as §1
The test system of a further experiment is mTOR/α-Tubulin. Kind of experiment: mTOR/α-Tubulin double staining in cardiac fibroblast. Format: cell-based, rat. As to conditions: cardiac fibroblast of rats, 10^−7 M, confocal microscope. The text has this: (§4) Beta-3 receptor promoted binding of mTORC2 to α-Tubulin in spindle apparatus. BRL37344 was used to treat cardiac fibroblast of rats at 10^−7 M. The cells were undergone mTOR/α-Tubulin immunohistochemical double staining and Rictor/α-Tubulin immunofluorescence double staining, and observed under confocal microscope.

The next experiment concerns Rictor/α-Tubulin. Kind of experiment: Rictor/α-Tubulin immunofluorescence double staining in cardiac fibroblast. Format: cell-based, rat. Conditions: cardiac fibroblast of rats, 10^−7 M, confocal microscope.
From the text: as §4

For the next experiment, the system named is naked tumor-bearing rats. Kind of experiment: ATP content by ATP kit in tumor tissue of naked tumor-bearing rats. Format: in vivo, rat. As to conditions: 10^−7 M. The method, then:
as §3

In another experiment the test system is mTOR/Rictor complex. Kind of experiment: Western blot of mTOR/Rictor complex. Format: cell-based. As to conditions: rat cardiomyocyte, 10^−7 M, 24 h, compared to control shRNA. On the procedure:
Activation of the β3 receptor could increase mTOR/Rictor complex in […]. shRNA of β3 adrenergic receptor, control shRNA, BRL37344 and SR59230A was used to treat rat cardiomyocyte each at 10^−7 M. After 24 h, total protein was extracted and subjected to western blot to determine the expression amount of mTOR and Rictor proteins.

The subject of experiment [7] is adipose-derived stem cells of rats. Kind of experiment: β-Galactosidase staining of adipose-derived stem cells. Format: cell-based, rat. Conditions: 10^−7 M, 24 h, compared with SR59230A. On the procedure: Blockage of the β-3 receptor could increase level of β-galactosidase in adipose-derived stem cells and promote stem cell aging. BRL37344 and SR59230A were used to treat adipose-derived stem cells of rats each at 10^−7 M. After 24 h, cells were fixed using paraformaldehyde, and stained and photographed according to the specification of β-Galactosidase Staining Kit. BRL37344 decreases the level of β-galactosidase in adipose-derived stem cells compared with SR59230A, indicating agonisting of adrenergic β3 receptors of adipose-derived stem cells achieves anti-aging effect.

The test system of another experiment is cardiomyocyte. Kind of experiment: Lipofuscin in cardiomyocyte under confocal microscope. Format: cell-based, rat. Conditions: 10^−7 M, 10 days. The text has this: Beta-3 receptor reduced amount of lipofuscin in cardiomyocyte. BRL37344 and SR59230A were used to treat cardiomyocyte each at 10^−7 M. After 10 days, cells were observed under confocal microscope for lipofuscin.

Experiment [8] relates to p53. Kind of experiment: Western blot of p53 in MCF-7 cells treated with SR59230A. Format: cell-based. Conditions: 24 h, with increasing SR59230A concentration, western blot vs GAPDH. The method, then:
(§5) MCF-7 cells were treated with SR59230A at different concentrations. After 24 h, the cells were lysed to extract total protein. The protein concentration was determined by BCA method. 10 μg of the protein was used to perform 10% SDS PAGE, and then transferred to a PVDF membrane. The membrane was blocked for 1 h with TBST (10 mmol/L Tris HCl, pH 7.5, 150 mmol/L NaCl, 0.1% Tween 20) containing 4% fat-free milk, and incubated overnight with p53 antibody (1:1000) and SIRT1 antibody (1:1000) at 4° C. The membrane was further incubated with secondary antibodies for 1 h after washing, followed by ECL color development. The same procedure is repeated 3 times. The gray values of protein bands were obtained through Fluorchem 8900 software and the ratio of target band to reference band (GAPDH) was calculated. Results are shown in FIGS. 1 and 2, wherein the expression level of p53 is increased as the increase of SR59230A concentration, while SIRT1 is decreased.

Experiment [9] deals with MCF7 cells. As to the kind of experiment: MitoTracker/LC3B immunofluorescence double staining (mitochondrion content, mitophagy). Format: cell-based. Conditions: 10^−7 M. On the procedure:
as §3

In experiment [10] the test system is MCF7 cells. As to the kind of experiment: MDC staining by flowcytometer. Format: cell-based. Conditions: 10^−7 M. On the procedure:
as §3

Experiment [11] concerns MCF7 cells. Kind of experiment: GFP-LC3 eukaryotic expression vector transfection. Format: cell-based. As to conditions: 10^−7 M, GFP-LC3 transfected cells. On the procedure:
as §3

Experiment [12] has as its system SIRT1. As to the kind of experiment: Western blot of SIRT1 in MCF-7 cells treated with SR59230A. As to conditions: 24 h, with increasing SR59230A concentration, western blot vs GAPDH. Format: cell-based. The method, then:
as §5

In the case of `C[C@H](Cc1ccc(OCC(=O)O)cc1)NC[C@H](O)c1cccc(Cl)c1` [BRL37344], the “p53 expression in rat myocardia” value with p53 [1] is recorded as “decreases”. Also, in the experiment with SIRT1 [2], the “expression of SIRT1 in heart, liver, brain, kidney and aorta” value is recorded as “increases”. For the same compound, in the experiment on SIRT3, the “expression of SIRT3 in heart, liver, brain, kidney and aorta” value is “increases”. Moreover, the “intracellular ROS content” value in the experiment on MCF7 cells [3] is recorded as “reduced”. Further, the “expression of SIRT4 in heart, liver, brain, kidney and aorta” value in the experiment on SIRT4 is recorded as “increases”. Moreover, the “SIRT1 expression in rat myocardia” value in the experiment on SIRT1 [4] was “increases”. Further, the mitochondrial membrane potential entry with MCF7 cells [5] was “protected”. Further, in experiment [6], the cardiac hypertrophy entry is reported as “alleviate” and the “ratio of left ventricular weight to body weight (LVW/BW)” value is given as “decreases”. In addition, the cardiac function result in experiment [6] (heart B-ultrasonography, 1 mg/kg/day) is on record as “improve”. In addition, in experiment [6] (tunel method, 1 mg/kg/day), the cardiac cell apoptosis result was “decreases”. Also, in the experiment on mTOR/α-Tubulin, the “binding of mTOR to α-Tubulin in spindle apparatus” value is recorded as “promoted”. In addition, the “binding of Rictor to α-Tubulin” value in the experiment on Rictor/α-Tubulin is reported as “promoted”. Further, the “intracellular ATP level” value with naked tumor-bearing rats is “increased”. Further, the mTOR/Rictor complex entry in the experiment on mTOR/Rictor complex is given as “increases”. Besides, in experiment [7], the “level of β-galactosidase in adipose-derived stem cells” value is “decreases”. Besides, the lipofuscin in cardiomyocyte entry with cardiomyocyte is on record as “significantly reduced”.

Turning to `CCc1ccccc1OC[C@@H](O)CN[C@H]1CCCc2ccccc21` [SR59230A], the “expression level of p53” value with p53 [8] is reported as “increased”. Besides, the content of mitochondrion result with MCF7 cells [9] (MitoTracker probes) was “decreases”. Moreover, the mitophagy entry in the experiment with MCF7 cells [9] (MitoTracker/LC3B double staining) is recorded as “enhance”. Further, the MDC staining result in the experiment with MCF7 cells [10] was “increased”. In addition, in the experiment on MCF7 cells [11], the GFP-LC3 fluorescent spots entry was “promoted to form many bright and green fluorescent spots”. Besides, the mitochondrial membrane potential entry with MCF7 cells [5] is reported as “damaged”. In addition, the “expression level of SIRT1” value in the experiment on SIRT1 [12] is listed as “decreased”.
